Source: US12570694B2, “Peptides and pharmaceutical, nutraceutical or veterinary compositions for hair loss prevention and/or treatment” (VYTRUS BIOTECH, S.L., priority 2016, dated 2026)
Non-standard residues stand in square brackets, D forms with d. sY = N[C@@H](Cc1ccc(OS(=O)(=O)O)cc1)C(=O)O

What was measured:
Format in all cases: cell-based
[1] = test system: human dermal fibroblasts (HDF); test: Wound healing (scratch) assay on human dermal fibroblasts; settings: FIG. 17; 5 μg/ml and 0.05 μg/ml; 5 days of treatment; triplicate mean; vs 0.1% FBS basal, 10% FBS and TGF-β1 positive controls
Method: In order to test the effect of the sulfaction state of the peptides on their activity, it is herewith provided as reference example a wound healing assay conducted onto human dermal fibroblasts (HDF).
Human dermal fibroblasts were seeded in a 24-well plate and were grown to confluence. A 2 mm width scratch was done on the culture monolayer. Then the test products in culture medium were added and the cicatrisation process was followed by means of phase contrast microscopy. With this aim, photographs were taken at initial of the test (T=0 h) before the scratching and after the treatment (at 12 h and at 72 h). Cicatrisation process was evaluated by quantifying wound area reduction at each time.
Data at the end of the test (5 days of treatment) are depicted in FIG. 17, wherein the wound healing potential is depicted as the Healed Area (in μm^2) for assayed peptide.
The results derive from a triplicate test. Values of cicatrised area (or % of cicatrisation) are the mean values.

[2] = test system: human hair follicle papilla cells (HFDPC); test: In vitro proliferation of hair follicle dermal papilla cells (BrdU incorporation); settings: FIGS. 2 and 3; peptides with or without end-terminal modifications at 5.86, 2.93, 1.46 μg/ml; basal control = 100%
Method: In order to test the effects of the cell-free supernatants, as well as of the peptides of the invention, a proliferation assay was conducted onto human hair follicle papilla cells (CELL APPLICATIONS, INC; Normal human hair follicles from temporal scalp. Single donor: Ref. 602-05a. Lot. 2092.).
The culture media was a Papilla Cell Basal Medium supplemented with the Growth Supplements kit (Relative composition: Fetal bovine serum, growth factors and antibiotics. Application: 6% v/v).
HFDPC proliferation was assessed determining the proliferation index (%). Cell DNA replication was quantified by means of incorporated bromodeoxiuridine (BrdU) into DNA of treated cells. BrdU assay allows measuring cell proliferation based on cell capability of incorporating BrdU during S-phase of the cell cycle. Cells being divided incorporated BrdU that is further detected by means of antibodies and immunocytochemistry detection.
Cells were seeded at confluence in a 96-well plate. After stabilization and synchronization of cell cultures the tested products were added (at the final concentration indicated in Table 1 of Examples. After that, BrdU was added to cultures and HFDPC were incubated at 37° C. until complete BrdU incorporation. BrdU amounts were proportional to the number of cell divisions and thus to the growth of the treated culture.
Data are depicted in FIG. 1, FIG. 2 and FIG. 3, wherein it is shown the proliferation index (%) of HFDPC, calculated as the percentage of growing in relation to the basal control (non-treated HFDPC) which is accorded a 100% value of proliferation index.

[3] = test system: human dermal fibroblasts (HDF); test: In vitro proliferation of human dermal fibroblasts (BrdU incorporation); settings: FIGS. 6 and 7; 4Aa at 25, 12.5, 1.25 μg/ml, 5Aa at 1.25, 0.63, 0.25 μg/ml; basal control = 100%
Method: In order to further test the effects of the peptides of the invention in an additional setting, a proliferation assay was conducted onto human dermal fibroblasts (HDF).
Normal Human Dermal Fibroblasts (HDF) were obtained from foreskin samples, surpluses from surgery of young donors (0-3 years old) and stablished by using the standard method of explants growth and enzymic dissociation of proliferating cells. Cells were propagated and grown in Growth Medium (GM): Dulbecco's 1 g/L glucose medium, supplemented with 10% foetal bovine serum (FBS, PAA); 2 mM L-glutamine (Lonza); and antibiotics (100 μg/ml Penicillin and 100 U/ml of Streptomycin, Lonza). For routine subcultivation and propagation of the primary culture, cells were washed twice with PBS ([…] buffered saline, pH 7.4), harvested with trypsin—EDTA (Gibco) and counted in Neubauer chamber before its seeding in a new cell culture flask (Falcon, 75 cm2).
Test products were prepared at the defined final concentrations by its dilution in Maintenance Medium (Dulbecco's 1 g/L glucose medium, supplemented with 1% foetal bovine serum (FBS, PAA); 2 mM L-glutamine (Lonza); and antibiotics (100 μg/ml Penicillin and 100 U/ml of Streptomycin, Lonza), just before each application.
HFD proliferation was assessed determining the proliferation index (%). Cell DNA replication was quantified by means of incorporated bromodeoxiuridine (BrdU) into DNA of treated cells. […] Cells being divided incorporated BrdU that is further detected by means of antibodies and immunocytochemistry detection. […]
Data are depicted in FIG. 6 and FIG. 7, wherein it is shown the proliferation index (%) of HDF, calculated as the percentage of growing in relation to the basal control (non-treated HDF) which is accorded a 100% value of proliferation index. […]
Data are depicted in FIG. 16, wherein it is shown the proliferation index (%) of HDF, calculated as the percentage of growing in relation to the basal control (non-treated HDF) which is accorded a 100% value of proliferation index.

Substance | wound healing potential, Healed Area [1] | proliferation index of HFDPC [2] | proliferation index of HDF [3]
CH3—C(O)—Xaa1IYT-NH2 (Ac-[sY]IYT-NH2; SMILES CC[C@H](C)[C@H](NC(=O)[C@H](Cc1ccc(OS(=O)(=O)O)cc1)NC(C)=O)C(=O)N[C@@H](Cc1ccc(O)cc1)C(=O)N[C@H](C(N)=O)[C@@H](C)O) [SEQ ID NO: 2, Xaa1 is a tyrosine residue with the side-chain hydroxyl group replaced by a radical —OSO3H] | have the same activity as the 4Aa non-sulfated peptide | – | –
CH3—C(O)—YIXaa2T-NH2 (Ac-YI[sY]T-NH2; SMILES CC[C@H](C)[C@H](NC(=O)[C@H](Cc1ccc(O)cc1)NC(C)=O)C(=O)N[C@@H](Cc1ccc(OS(=O)(=O)O)cc1)C(=O)N[C@H](C(N)=O)[C@@H](C)O) [SEQ ID NO: 3, Xaa2 is a tyrosine residue with the side-chain hydroxyl group replaced by a radical —OSO3H] | have the same activity as the 4Aa non-sulfated peptide | – | –
CH3—C(O)—YIYTQ-NH2 (Ac-YIYTQ-NH2) [SEQ ID NO: 7] | – | can promote cell proliferation | can promote cell proliferation of HDF
